Measured values published in patent US5266463A, “Highly sensitive assay method for L-carnitine and composition for practicing same” (Asahi Kasei Kogyo Kabushiki Kaisha, priority 1990, dated 1993).
Values joined by “and” are separate entries in the source; they are usually repeats but may differ in a detail not shown here. Equal entries are not always repeated. Where two headings read alike, the source gives them in different places. Blank lines part the entries; values can stand above or below the compound they belong to.

System: L-carnitine dehydrogenase (EC 1.1.1.108) produced by Alcaligenes sp. No. 981 FERM BP-2570
Test: Km-value determination of L-carnitine dehydrogenase (diaphorase/NBT coupled reaction)
Assay type: biochemical
Source text: The L-carnitine dehydrogenase used in the composition for assay of L-carnitine according to the present invention can be an enzyme having reactivity on a substrate of L-carnitine together with a suitable coenzyme NAD or thio-NAD. Its suitability can be confirmed by using the said coenzyme and substrate. L-carnitine dehydrogenase produced by Alcaligenes sp. No. 981 (product of Toyo Jozo Co.) has a relative activity of approx. 15% when coenzyme thio-NAD is used, as compared to use of NAD.
Km-value for NAD is measured in various concentrations of NAD^* in a reaction mixture of:
100 mM Tris-HCl buffer (pH 9.0)
5U diaphorase (Toyo Jozo Co.)
0.025% NBT (Wako Pure Chem. Co.)
1% polyoxyethylene (20) sorbitan monooleate (80) (Wako Pure Chem. Co.) and
In the reaction mixture, 50 mM L-carnitine is replaced by 1 mM NAD , and the concentration of L-carnitine is varied to measure the Km-value of L-carnitine.
The results are as shown above.

Compound: C[N+](C)(C)C[C@H](O)CC(=O)[O-] [L-carnitine]
Km (L-carnitine concentration varied, 1 mM NAD, 100 mM Tris-HCl buffer (pH 9.0), diaphorase, NBT, read-out: Km-value (L-carnitine)): 9300 µM

Compound: NC(=O)c1ccc[n+]([C@@H]2O[C@H](COP(=O)([O-])OP(=O)(O)OC[C@H]3O[C@@H](n4cnc5c(N)ncnc54)[C@H](O)[C@@H]3O)[C@@H](O)[C@H]2O)c1 [NAD, nicotinamide adenine dinucleotide]
Km (NAD concentration varied, 50 mM L-carnitine, 100 mM Tris-HCl buffer (pH 9.0), diaphorase, NBT, read-out: Km-value (NAD)): 140 µM and 141 µM

Km (coenzyme thio-NAD, under the same conditions as NAD, read-out: Km-value (thio-NAD)): 400 µM
Compound: NC(=S)c1ccc[n+]([C@@H]2O[C@H](COP(=O)([O-])OP(=O)(O)OC[C@H]3O[C@@H](n4cnc5c(N)ncnc54)[C@H](O)[C@@H]3O)[C@@H](O)[C@H]2O)c1 [thio-NAD, thionicotinamide adenine dinucleotide]
